Laboratory results taken from paper PMC9332833 (Cancers, 2022).

Assays:
[1] = test system: CD34+ cells from CML patients; test: MTT viability assay, CML CD34+ cells; format: cell-based; details: Homo sapiens, 48 h
Protocol: Blood samples were taken (venipuncture, EDTA-K2 Vacutainer tubes, Becton Dickinson, Franklin Lakes, NJ, USA) from 8 chronic phase CML patients (CML1–CML8; 4 men and 4 women, aged 39–79) diagnosed at the Department of Hematology, University Clinical Center, Medical University of Warsaw, following their written consent. The diagnosis was carried out by qualified clinical staff based on an interview, blood parameters and molecular tests detecting BCR-ABL1 (transcript b3a2). Peripheral blood mononuclear cells were immediately isolated from the fresh blood sample using standard protocol (Supplementary Methods). […]
Cells were seeded in 96-well plates; after 24 h, medium with the appropriate drug concentration was added to each well. […] Absorbance was read using an iMark Microplate absorbance reader (Bio-Rad, Hercules, CA, USA). Results were calculated relative to cells treated with DMSO only.
[…] Next, we isolated CD34+ cells (EasySep™ Human CD34 Positive Selection Kit II, StemCell Technologies, Vancouver, Canada), counted them and assessed viability with Muse Cell Analyzer (Merck Millipore, Burlington, MA, USA). […] The purity of the live CD34+ fraction was assessed by flow cytometry with anti-human CD34-APC antibody, compared with an appropriate isotype control (Biolegend, San Diego, CA, USA), and propidium iodide (Sigma-Aldrich, St. Louis, MO, USA). […]

[2] = Pharmacokinetics in Balb/c nude mice; format: in vivo; details: for MRT last / half-life / AUC(0-inf) / C0: Balb/c nude; for AUC(0-inf): extrapolated to infinity; for C0: extrapolated to t = 0
Protocol: Eight-week-old female Balb/c nude mice were randomly divided into test groups and injected with BK124.1 either intraperitoneally, at 20 mg/kg or 40 mg/kg concentrations, or intravenously at 20 mg/kg concentration. The compound blood concentration was measured 15 min, 6, 12, and 24 h post-injection. For each time point, 4 mice were sacrificed. BK124.1 concentration in the bloodstream was analyzed using mass spectrometry. Toxicology was assessed by examining physiological and morphological changes at the injection site, the appearance of internal organs (liver, heart, kidneys, and spleen), blood tests, body mass, and animal behavior.

[3] = Pharmacokinetics in Wistar rats; format: in vivo, Wistar rat
Protocol: Five Wistar rats were injected intravenously (IV) with BK124.1 at 5 mg/kg or 10 mg/kg concentration, in 10% Solutol HS15/10% ethanol. The blood was taken from each animal after 5, 15, and 30 min, 1, 2, 6, and 24 h post-injection. Blood BK124.1 concentration was measured using mass spectrometry.

[4] = IP 20 mg/kg, whole blood, female mouse
[5] = IP 40 mg/kg, whole blood, female mouse
[6] = IV 20 mg/kg, whole blood, female mouse

SMILES: CCC12C(=O)C(CC)(C(c3ccccc3)=C1c1ccccc1)C1C(=O)N(CC(O)CNC(C)C)C(=O)C12 (stereo not drawn) [BK124.1, 4-[2-hydroxy-3-(propan-2-ylamino)propyl]-1,7-diethyl-8,9-diphenyl-4-azatricyclo [5.2.1.02,6]dec-8-ene-3,5,10-trione]
- IC50 [1]: 1.5 µM
- MRT last [2, 4]: 5.09 h
- half-life [2, 4]: 3.53 h
- AUC(0-inf) [2, 4]: 9580 ng·h/mL
- C0 [2, 4]: 1740 ng/mL
- MRT last [2, 5]: 7.48 h
- half-life [2, 5]: 5.18 h
- AUC(0-inf) [2, 5]: 23500 ng·h/mL
- C0 [2, 5]: 2760 ng/mL
- MRT last [2, 6]: 4.78 h
- half-life [2, 6]: 3.31 h
- AUC(0-inf) [2, 6]: 6620 ng·h/mL
- C0 [2, 6]: 1020 ng/mL
- AUClast, dose normalized [2, 4]: 3.24 kg·ng·h/mL/mg
- AUC∞, dose normalized [2, 4]: 479 kg·ng·h/mL/mg
- AUClast, dose normalized [2, 5]: 16.18 kg·ng·h/mL/mg
- AUC∞, dose normalized [2, 5]: 587 kg·ng·h/mL/mg
- AUClast, dose normalized [2, 6]: 2.50 kg·ng·h/mL/mg
- AUC∞, dose normalized [2, 6]: 331 kg·ng·h/mL/mg
- half-life ([2]; female, mouse, IP 20 mg/kg, blood): 3.53 h
- half-life ([2]; female, mouse, IP 40 mg/kg, blood): 5.18 h
- half-life ([2]; female, mouse, IV 20 mg/kg, blood): 3.31 h
- Time BK124.1 remains detectable in the peripheral blood ([3]; IV 10 mg/kg (Figure 1A)): 24 h
- half-life ([3]; Wistar, rat, IV 10 mg/kg, blood): 4.39 h
